Data published in the CheMixHub viscosity set.
± gives the uncertainty stated by the source.

Assay: xn = mol fraction of the nth substance listed

Cc1ccccn1 + Brc1ccccc1
viscosity [mPa·s], 101 kPa
Conditions | x1 = 0.2 | x1 = 0.4 | x1 = 0.6 | x1 = 0.8
293.15 K | 1.072 ± 0.018 | 1.016 ± 0.017 | 0.954 ± 0.016 | 0.885 ± 0.015
313.15 K | 0.833 ± 0.014 | 0.785 ± 0.014 | 0.736 ± 0.013 | 0.684 ± 0.012

ClC=C(Cl)Cl + C1CCOC1
303.15 K, 101 kPa
Conditions | viscosity [mPa·s]
x2 = 0.0614 | 0.5484 ± 0.0046
x2 = 0.1057 | 0.5631 ± 0.0047
x2 = 0.2281 | 0.5879 ± 0.0049
x2 = 0.3529 | 0.5932 ± 0.005
x2 = 0.4929 | 0.5817 ± 0.0049
x2 = 0.5166 | 0.5781 ± 0.0049
x2 = 0.64 | 0.556 ± 0.0047
x2 = 0.7608 | 0.5289 ± 0.0045
x2 = 0.8813 | 0.4983 ± 0.0043
x2 = 0.9421 | 0.4822 ± 0.0042

ClC=C(Cl)Cl + C1COCCO1
101.33 kPa
Conditions | viscosity [mPa·s]
298.15 K, x1 = 0.1027 | 1.036 ± 0.017
298.15 K, x1 = 0.2015 | 0.963 ± 0.016
298.15 K, x1 = 0.3002 | 0.909 ± 0.014
298.15 K, x1 = 0.409 | 0.854 ± 0.013
298.15 K, x1 = 0.502 | 0.814 ± 0.012
298.15 K, x1 = 0.6078 | 0.767 ± 0.011
298.15 K, x1 = 0.6921 | 0.732 ± 0.01
298.15 K, x1 = 0.8076 | 0.685 ± 0.009
298.15 K, x1 = 0.9058 | 0.649 ± 0.009
303.15 K, x2 = 0.0577 | 0.5863 ± 0.0044
303.15 K, x2 = 0.1189 | 0.6434 ± 0.0048
303.15 K, x2 = 0.289 | 0.7496 ± 0.0055
303.15 K, x2 = 0.3696 | 0.7787 ± 0.0057
303.15 K, x2 = 0.4012 | 0.7885 ± 0.0058
303.15 K, x2 = 0.5728 | 0.837 ± 0.0061
303.15 K, x2 = 0.6186 | 0.8515 ± 0.0062
303.15 K, x2 = 0.7841 | 0.9264 ± 0.0067
303.15 K, x2 = 0.892 | 0.9979 ± 0.0072
303.15 K, x2 = 0.9513 | 1.045 ± 0.0075
308.15 K, x1 = 0.1027 | 0.907 ± 0.015
308.15 K, x1 = 0.2015 | 0.852 ± 0.014
308.15 K, x1 = 0.3002 | 0.804 ± 0.013
308.15 K, x1 = 0.409 | 0.757 ± 0.012
308.15 K, x1 = 0.502 | 0.727 ± 0.011
308.15 K, x1 = 0.6078 | 0.693 ± 0.01
308.15 K, x1 = 0.6921 | 0.67 ± 0.009
308.15 K, x1 = 0.8076 | 0.64 ± 0.009
308.15 K, x1 = 0.9058 | 0.613 ± 0.008
318.15 K, x1 = 0.1027 | 0.815 ± 0.013
318.15 K, x1 = 0.2015 | 0.764 ± 0.012
318.15 K, x1 = 0.3002 | 0.726 ± 0.011
318.15 K, x1 = 0.409 | 0.69 ± 0.011
318.15 K, x1 = 0.502 | 0.673 ± 0.01
318.15 K, x1 = 0.6078 | 0.653 ± 0.009
318.15 K, x1 = 0.6921 | 0.635 ± 0.009
318.15 K, x1 = 0.8076 | 0.605 ± 0.008
318.15 K, x1 = 0.9058 | 0.586 ± 0.008

NC1CCCCC1 + C1COCO1
298.15 K, 101 kPa
Conditions | viscosity [mPa·s]
x2 = 0.1295 | 1.517 ± 0.012
x2 = 0.2508 | 1.331 ± 0.01
x2 = 0.3646 | 1.174 ± 0.0093
x2 = 0.4716 | 1.044 ± 0.0084
x2 = 0.5724 | 0.9345 ± 0.0076
x2 = 0.6676 | 0.8431 ± 0.007
x2 = 0.7575 | 0.7633 ± 0.0064
x2 = 0.8427 | 0.6955 ± 0.0059
x2 = 0.9234 | 0.6344 ± 0.0055

CC(O)CO (stereo not given) + CC#N
viscosity [mPa·s], 100 kPa
Conditions | x2 = 0.1127 | x2 = 0.2 | x2 = 0.3055 | x2 = 0.4021 | x2 = 0.5008 | x2 = 0.5989 | x2 = 0.6987 | x2 = 0.7958 | x2 = 0.8961
293.15 K | 31.4 ± 6.3 | 20.3 ± 4.1 | 12.2 ± 2.4 | 7.53 ± 1.5 | 4.71 ± 0.94 | 2.9 ± 0.58 | 1.82 ± 0.36 | 1.1 ± 0.22 | 0.66 ± 0.13
298.15 K | 25.4 ± 5.1 | 16.9 ± 3.4 | 10.3 ± 2.1 | 6.21 ± 1.2 | 4.02 ± 0.81 | 2.42 ± 0.49 | 1.57 ± 0.31 | 0.97 ± 0.19 | 0.59 ± 0.12
303.15 K | 20.8 ± 4.2 | 13.8 ± 2.8 | 8.68 ± 1.7 | 5.48 ± 1.1 | 3.52 ± 0.71 | 2.25 ± 0.45 | 1.4 ± 0.28 | 0.87 ± 0.17 | 0.53 ± 0.11

ClC=C(Cl)Cl + CC#N
Conditions | viscosity [mPa·s]
298.15 K, 101 kPa, x1 = 0.0501 | 0.358 ± 0.056
298.15 K, 101 kPa, x1 = 0.099 | 0.373 ± 0.058
298.15 K, 101 kPa, x1 = 0.2003 | 0.406 ± 0.061
298.15 K, 101 kPa, x1 = 0.3001 | 0.434 ± 0.064
298.15 K, 101 kPa, x1 = 0.3984 | 0.461 ± 0.068
298.15 K, 101 kPa, x1 = 0.4976 | 0.485 ± 0.07
298.15 K, 101 kPa, x1 = 0.5968 | 0.504 ± 0.072
298.15 K, 101 kPa, x1 = 0.7206 | 0.526 ± 0.075
298.15 K, 101 kPa, x1 = 0.7798 | 0.532 ± 0.075
298.15 K, 101 kPa, x1 = 0.9038 | 0.541 ± 0.076
298.15 K, 101 kPa, x2 = 0.0708 | 0.524 ± 0.005
298.15 K, 101 kPa, x2 = 0.1846 | 0.515 ± 0.005
298.15 K, 101 kPa, x2 = 0.3572 | 0.494 ± 0.005
298.15 K, 101 kPa, x2 = 0.4854 | 0.471 ± 0.005
298.15 K, 101 kPa, x2 = 0.5616 | 0.458 ± 0.005
298.15 K, 101 kPa, x2 = 0.6719 | 0.433 ± 0.005
298.15 K, 101 kPa, x2 = 0.775 | 0.403 ± 0.004
298.15 K, 101 kPa, x2 = 0.9121 | 0.369 ± 0.004
303.15 K, 101.32 kPa, x2 = 0.0893 | 0.5209 ± 0.0072
303.15 K, 101.32 kPa, x2 = 0.1803 | 0.5171 ± 0.0071
303.15 K, 101.32 kPa, x2 = 0.2502 | 0.5072 ± 0.0071
303.15 K, 101.32 kPa, x2 = 0.3697 | 0.4877 ± 0.0069
303.15 K, 101.32 kPa, x2 = 0.5273 | 0.4539 ± 0.0066
303.15 K, 101.32 kPa, x2 = 0.6422 | 0.4238 ± 0.0064
303.15 K, 101.32 kPa, x2 = 0.7089 | 0.4071 ± 0.0063
303.15 K, 101.32 kPa, x2 = 0.7814 | 0.3824 ± 0.0061
303.15 K, 101.32 kPa, x2 = 0.8363 | 0.3654 ± 0.0059
303.15 K, 101.32 kPa, x2 = 0.9308 | 0.3451 ± 0.0058
308.15 K, 101 kPa, x2 = 0.0708 | 0.483 ± 0.005
308.15 K, 101 kPa, x2 = 0.1846 | 0.471 ± 0.005
308.15 K, 101 kPa, x2 = 0.3572 | 0.451 ± 0.005
308.15 K, 101 kPa, x2 = 0.4854 | 0.43 ± 0.005
308.15 K, 101 kPa, x2 = 0.5616 | 0.417 ± 0.005
308.15 K, 101 kPa, x2 = 0.6719 | 0.396 ± 0.004
308.15 K, 101 kPa, x2 = 0.775 | 0.37 ± 0.004
308.15 K, 101 kPa, x2 = 0.9121 | 0.341 ± 0.004
318.15 K, 101 kPa, x2 = 0.0708 | 0.443 ± 0.005
318.15 K, 101 kPa, x2 = 0.1846 | 0.431 ± 0.005
318.15 K, 101 kPa, x2 = 0.3572 | 0.413 ± 0.005
318.15 K, 101 kPa, x2 = 0.4854 | 0.393 ± 0.004
318.15 K, 101 kPa, x2 = 0.5616 | 0.384 ± 0.004
318.15 K, 101 kPa, x2 = 0.6719 | 0.364 ± 0.004
318.15 K, 101 kPa, x2 = 0.775 | 0.342 ± 0.004
318.15 K, 101 kPa, x2 = 0.9121 | 0.315 ± 0.004

ClC=C(Cl)Cl + CC(=O)CC(C)C
viscosity [mPa·s], 101.33 kPa
Conditions | x1 = 0.1088 | x1 = 0.1998 | x1 = 0.3286 | x1 = 0.4037 | x1 = 0.5018 | x1 = 0.5921 | x1 = 0.7362 | x1 = 0.7986 | x1 = 0.8859
298.15 K | 0.564 ± 0.007 | 0.578 ± 0.007 | 0.593 ± 0.008 | 0.603 ± 0.008 | 0.616 ± 0.008 | 0.621 ± 0.008 | 0.631 ± 0.008 | 0.63 ± 0.008 | 0.624 ± 0.008
308.15 K | 0.508 ± 0.007 | 0.516 ± 0.007 | 0.533 ± 0.007 | 0.546 ± 0.007 | 0.561 ± 0.007 | 0.574 ± 0.007 | 0.595 ± 0.008 | 0.6 ± 0.008 | 0.605 ± 0.008
318.15 K | 0.464 ± 0.006 | 0.475 ± 0.006 | 0.49 ± 0.006 | 0.5 ± 0.007 | 0.51 ± 0.007 | 0.519 ± 0.007 | 0.533 ± 0.007 | 0.539 ± 0.007 | 0.547 ± 0.007

CC(O)CO (stereo not given) + CC(=O)N(C)C
viscosity [mPa·s], 101 kPa
Conditions | x2 = 0.0807 | x2 = 0.0999 | x2 = 0.2 | x2 = 0.2994 | x2 = 0.4014 | x2 = 0.4996 | x2 = 0.6 | x2 = 0.6954 | x2 = 0.7937 | x2 = 0.8997
293.15 K | 36.91 ± 0.84 | 33.19 ± 0.76 | 19.06 ± 0.46 | 11.57 ± 0.29 | 7.324 ± 0.2 | 4.919 ± 0.14 | 3.403 ± 0.1 | 2.466 ± 0.074 | 1.827 ± 0.056 | 1.349 ± 0.042
303.15 K | 21.61 ± 0.53 | 19.64 ± 0.48 | 12.06 ± 0.3 | 7.768 ± 0.21 | 5.202 ± 0.15 | 3.659 ± 0.11 | 2.637 ± 0.079 | 1.987 ± 0.06 | 1.512 ± 0.047 | 1.151 ± 0.037
313.15 K | 13.49 ± 0.34 | 12.39 ± 0.31 | 8.071 ± 0.21 | 5.477 ± 0.15 | 3.845 ± 0.11 | 2.819 ± 0.084 | 2.108 ± 0.064 | 1.634 ± 0.05 | 1.277 ± 0.04 | 1 ± 0.032
323.15 K | 8.96 ± 0.23 | 8.317 ± 0.22 | 5.673 ± 0.16 | 4.023 ± 0.12 | 2.939 ± 0.087 | 2.229 ± 0.067 | 1.718 ± 0.053 | 1.368 ± 0.043 | 1.097 ± 0.035 | 0.879 ± 0.029

ClC=C(Cl)Cl + CC(C)(C)O
303.15 K, 101.3 kPa
Conditions | viscosity [mPa·s]
x1 = 0.1042 | 1.951 ± 0.025
x1 = 0.2103 | 1.329 ± 0.017
x1 = 0.3164 | 1.018 ± 0.014
x1 = 0.4143 | 0.856 ± 0.012
x1 = 0.5147 | 0.758 ± 0.01
x1 = 0.6204 | 0.689 ± 0.01
x1 = 0.7102 | 0.648 ± 0.009
x1 = 0.8036 | 0.608 ± 0.009
x1 = 0.9088 | 0.562 ± 0.008

NC1CCCCC1 + CC(C)(C)O
298.15 K, 101 kPa
Conditions | viscosity [mPa·s]
x1 = 0.0767 | 4.039 ± 0.046
x1 = 0.1574 | 3.722 ± 0.043
x1 = 0.2426 | 3.444 ± 0.039
x1 = 0.3325 | 3.203 ± 0.037
x1 = 0.4277 | 2.974 ± 0.034
x1 = 0.5285 | 2.749 ± 0.032
x1 = 0.6355 | 2.519 ± 0.029
x1 = 0.7493 | 2.309 ± 0.027
x1 = 0.8706 | 2.106 ± 0.025
